# Results as given in patent US11447495B2, “Substituted benzo[f]imidazo[1,5-a][1,4]diazepines as GABA(a) receptor modulators” (priority 2016, dated 2022).
# Like-named read-outs stand apart in the source and are kept apart here.
# Columns and labels:
# [1] = Airway hyperresponsiveness (sRaw) to methacholine in ovalbumin asthma model; assay type: in vivo, ova s/c BALB/c mice; conditions: oral gavage, 100 mg/kg twice daily for 5 days, methacholine challenge
# Procedure: Compounds described herein may reduce airway hyperresponsiveness in animal models of asthma. Therefore, mice may be sensitized three times with intra-peritoneal (i.p.) injections of 2 mg/kg/d of ovalbumin (Ova) emulsified in […] on days 0, 7 and 14 in a total volume of 100 μL. In addition, mice may be challenged intra-nasally (i.n.) with 1 mg/kg/d Ova for 5 days from days 23-27. Control mice may be sensitized with Ova and challenged with saline. The airway hyperresponsiveness measurements may be carried out with DSI's Buxco® FinePointe Non-Invasive Airway Mechanics (NAM) instrument consisting of a nasal chamber in combination with the thoracic chamber that allows the computation of specific airway resistance (sRaw). Treated conscious, spontaneously breathing Ova S/C mice may be exposed to aerosolized phosphate buffered saline (PBS) (for the baseline measurement) or methacholine (1.5625-12.5 mg/mL) for 1 minute and readings (sRaw) may be taken and averaged for 3 minutes after each nebulization.
# Drug treatment protocol: Sterile solutions of compounds were prepared in 2% hydroxypropyl methylcellulose solution (Sigma-Aldrich, St. Louis, Mo.) and 2.5% polyethylene glycol (Sigma Aldrich, St. Louis, Mo.) for oral administration in a biological safety cabinet. A fine suspension was obtained by grinding the mixture with a mortar and pestle. Drugs were administered individually at 100 mg/kg by oral gavage (200 ul) with 20G gavage needles (Kent Scientific Corporation, Torrington Conn.) to groups of ova s/c BALB/c twice daily for 5 days during the ova challenge period. Mice received a single p.o. dose of the compounds just before airway parameter measurements. Compounds for i.p. injection were prepared in 10% DMSO, 40% propylene glycol, and 50% PBS and given as 100 ul injection. Mice were monitored daily after drug administration. Assessment of Airway hyper-responsiveness: Airway hyper-responsiveness to methacholine in conscious, spontaneously breathing animals was measured by DSI's Buxco® FinePointe Non-Invasive Airway Mechanics (NAM) instrument. Before measurements were taken, mice were acclimated to the chambers 15 minutes daily for 5 days. In addition, an ovalbumin sensitization and challenge protocol consists of randomized male BALB/c mice that were sensitized three times with intra-peritoneal (i.p.) injections of 2 mg/kg/d of ovalbumin (Ova) (Sigma-Aldrich, St. Louis, Mo.) emulsified in 2 mg of Alum (Imject Alum; Thermo Scientific, Pierce, Rockford, Ill.) on days 0, 7 and 14 in a total volume of 100 μL. The mice were then challenged intra-nasally (i.n.) with 1 mg/kg/d Ova for 5 days from days 23-27. Control mice were sensitized with Ova and challenged with saline. The chambers were also calibrated each time before data collection. Briefly, the nasal chamber in combination with the thoracic chamber allows the computation of specific airway resistance (sRaw). The FinePointe software computes specific airway resistance (sRaw) with all other ventilatory parameters derived by the NAM analyzer. Mice were exposed to aerosolized PBS (for the baseline measurement) or methacholine (1.5625-12.5 mg/mL) for 1 minute and readings were taken and averaged for 3 minutes after each nebulization. Data obtained were presented as sRaw versus the methacholine concentration (mg/mL) used to generate the aerosol. FIG. 5A-5F show compound effects on airway hyperresponsiveness. Specific airway resistance (sRaw) was measured at increasing dosages of methacholine by a DSI's Buxco FinePointe non-invasive airway mechanics instrument. Ova s/c BALB/c mice were administered all compounds via oral gavage, 100 mg/kg twice daily for 5 days. Data represent mean±SEM from 10 mice in each group. *, **, and *** indicate p<0.05, p<0.01, p<0.001 significance, respectively, compared to vehicle treated ova s/c BALB/c mice.
# [2] = tested on: inflammatory cells, eosinophils, CD4+ T cells in BALF; test: Inflammatory cell numbers in BALF by flow cytometry; assay type: in vivo, ova s/c BALB/c mice; conditions: 100 mg/kg twice daily for 5 days
# Procedure: The change of the number of specific immune cells caused by compounds may be investigated in the bronchoalveolar lavage fluid (BALF) of Ova S/C mice. Therefore, a bronchoalveolar lavage may be carried out followed by the lysis of red blood cells. Incubation of cell-type specific antibodies with BALF may allow the quantification of leukocytes such as eosinophils and CD4^+ T-lymphocytes using flow cytometry.
# Determination of anti-inflammatory properties of compounds were investigated in an allergen induced mouse model of asthma. At the day of analysis, bronchoalveolar lavage (BAL) was performed with 1 mL of Ca2+ and Mg2+ free PBS. Red blood cells (RBCs) were lysed using BD red blood cell lysis buffer (BD Pharmingen, San Jose, Calif.). BALF was split into four different tubes and non-specific binding to Fc receptors was blocked for 5 minutes using 6 μg/mL of 2.4G2 mouse BD Fc Block™ (BD Pharmingen, San Jose, Calif.). BALF cells were stained for 30 minutes at 4° C. in the dark with 100 μL BSA stain buffer (BD Pharmingen, San Jose, Calif.) containing the final concentrations of the following antibodies: anti-mouse CD45 APC (1:1000, 30-F11, Affymetrix eBiosciences, San Diego, Calif.), FITC rat anti-mouse CD4 (1:500, RM4-5, BD Pharmingen, San Jose, Calif.), PE Rat Anti-Mouse Siglec F (1:500, E50-2440, BD Pharmingen, San Jose, Calif.) and mouse CCR3 PE-conjugated antibody (1:40, 83101, R&D systems Inc, Minneapolis, Minn.). Flow cytometric studies were done using the BD FACS Calibur (BD Pharmingen, San Jose, Calif.) and data analyzed subsequently using Cell Quest pro software (BD Pharmingen, San Jose, Calif.). General gating for immune cells were followed. Total inflammatory cell count was obtained by running all samples on high (60 μL/min) for 180 seconds. The gated anti-mouse CD45 positive events in the fourth channel (FL4) were used to calculate the total inflammatory cell count as cells/mL. The frequencies of CCR3+/Siglec F were used for quantification of eosinophils and CD4+ for CD4+ T cell populations in their respective gates were multiplied by the total inflammatory cell count (cells/mL) to obtain the differential cell population. Statistical analysis: Data were analyzed using GraphPad Prism 4 (GraphPad Software, San Diego, Calif.) and expressed as mean±SEM. One-way analysis of variance (ANOVA) with Dunnet post hoc test or two-way ANOVA with Bonferroni post hoc test were performed for statistical difference for multiple groups. FIGS. 7A-7C show effects of compounds on inflammatory cells. Groups of 10 ova s/c BALB/c mice were administered compounds at 100 mg/kg twice daily for 5 days. BALF was harvested from each animal and used for (A) quantification of total inflammatory cells; (B) eosinophils; (C) CD4^+ T cells. Cells were stained with mouse CD45^+ APC antibody, and samples were analyzed with BD FACS Calibur on high flow rate (60 μl/minute) for 180 seconds. The gated positive events in the fourth channel (FL4) were used to calculate the total inflammatory cell count as cells/ml. Quantification of specific leukocyte population (B) eosinophils (C) CD4^+ T cell populations were stained with specific antibodies and detected by flow cytometry. Data represent mean±SEM from 10 mice in each group. *, **, and *** indicate p<0.05, p<0.01, and p<0.001 significance, respectively, compared to vehicle treated ova s/c BALB/c mice.
# HEK293 = test: Cytotoxicity, CellTiter-Glo cell viability assay, kidney cells; assay type: cell-based, human
# Procedure: The cytotoxicity of compounds may be evaluated by treating HEK293 human embryonic kidney cells with increasing concentrations of compounds for 24-48 hours followed by the quantification of living cells using Cell-Titer Glo (Promega).
# Compounds with increased cytotoxicity can be identified using an in vitro cytotoxicity assay. Therefore, human embryonic kidney 293T (HEK293T) cell lines were purchased (ATCC) and cultured in 75 cm2 flasks (CellStar). Cells were grown in DMEM/High Glucose (Hyclone, #SH3024301) media to which non-essential amino acids (Hyclone, #SH30238.01), 10 mM HEPES (Hyclone, #SH302237.01), 5×106 units of penicillin and streptomycin (Hyclone, #SV30010), and 10% of heat inactivated fetal bovine serum (Gibco, #10082147) were added. Cells were harvested using 0.05% Trypsin (Hyclone, #SH3023601). The cell viability assay was evaluated using CellTiter-Glo™ Luminescent Cell Viability Assay Kit (Promega, Madison, Wis.), which contains luciferase and all its substrate except ATP. The controls for the cytotoxicity assay used were (E)-10-(bromotriphenylphosphoranyl)decyl 4-(4-(tert-butyl)phenyl)-4-oxobut-2-enoate (400 μM in DMSO, positive control) and DMSO (negative control). All luminescence readings were performed on a Tecan Infinite M1000 plate reader. Small volume transfers were performed on the Tecan Freedom EVO liquid handling system with a 100 nL pin tool transfer (V&P Scientific). Serial dilutions were done in 96-well polypropylene plates (Corning, #3365) and assays were conducted in 384-well white optical bottom plates. The assays were carried out in quadruplet in three independent runs. The data were normalized to the controls and if possible analyzed by nonlinear regression (GraphPad Prism).
# HEPG2 = test: Cytotoxicity, liver cells; assay type: cell-based, human
# [3] = Microsomal stability, human liver microsomes; assay type: in vitro ADME; conditions: 10 μM compound
# Procedure: (§1) The metabolic stability of compounds in vivo can be estimated with the stability of compounds in the presence of liver microsomes. Therefore, 4 μL of 1 mM DMSO solution of test compound at a final concentration of 10 μM were preincubated at 37° C. for 5 minutes on a digital heating shaking dry bath (Fischer scientific, Pittsburgh, Pa.) in a mixture containing 282 μL of water, 80 μL of phosphate buffer (0.5 M, pH 7.4) 20 μL of NADPH Regenerating System Solution A (BD Bioscience, San Jose, Calif.) and 4 μL of NADPH Regenerating System Solution B (BD Bioscience, San Jose, Calif.) in a total volume of 391.2 μL. Following preincubation, the reaction was initiated by addition of 8.8 μL of either human liver microsomes (BD Gentest, San Jose, Calif.) or mouse liver microsomes (Life technologies, Rockford, Ill.) at a protein concentration of 0.5 mg/mL. Aliquots of 50 μL were taken at time intervals of 0 (without microsomes), 10, 20, 30, 40, 50 and 60 minutes. Each aliquot was added to 100 μL of cold acetonitrile solution containing 1 μM of verapamil HCL as internal standard. This was followed by sonication for 10 seconds and centrifugation at 10,000 rpm for 5 minutes. 100 μL of the supernatant was transferred into Spin-X HPLC filter tubes (Corning Incorporated, NY) and centrifuged at 13,000 rpm for 5 minutes. The filtrate was diluted 100-fold and subsequently analyzed by LC-MS/MS with Shimadzu LCMS 8040, (Shimadzu Scientific Instruments, Columbia, Md.). The ratio of the peak areas of the internal standard and test compound was calculated for every time point and the natural log of the ratio were plotted against time to determine the linear slope (k). The metabolic rate (k*C0/C), half-life (0.693/k), and […] (V*k) were calculated, where k is the slope, C0 is the initial concentration of test compound, C is the concentration of microsomes, and V is the volume of incubation in μL per microsomal protein in mg. All experiments were repeated two time in triplicates.
# [4] = Microsomal stability, mouse liver microsomes; assay type: in vitro ADME; conditions: 10 μM compound
# Procedure: as §1
# [5] = tested on: guinea pig airway smooth muscle; test: Relaxation of substance P contracted guinea pig tracheal rings; parameters: dose or concentration left out as unconfirmed
# [6] = Pharmacokinetic analysis in blood, lungs and brain; conditions: mouse, 25 mg/kg oral gavage
compound,measurement,setting,value
"C[C@H]1N=C(c2ccccc2F)c2cc(C3CC3)ccc2-n2cnc(C(=O)O)c21 [GL-III-43, (R)-8-cyclopropyl-6-(2-fluorophenyl)-4-methyl-4H-benzo[f]imidazo[1,5-a][1,4]diazepine-3-carboxylic acid]",airway hyperresponsiveness (sRaw),[1],not able to alleviate airway hyperresponsiveness
same,numbers of inflammatory cells in BALF,[2],did not modulate the numbers of inflammatory cells
"CC(C)(C)OC(=O)c1ncn2c1[C@@H]1CCCN1C(=O)c1cc(O)ccc1-2 [RJ-02-67, tert-butyl (S)-7-hydroxy-9-oxo-11,12,13,13a-tetrahydro-9H-benzo[e]imidazo[5,1-c]pyrrolo[1,2-a][1,4]diazepine-1-carboxylate]",LD50 HEK293 (Kidney),"HEK293; human, HEK293 (HEK293T) human embryonic kidney cells",>400 µM
same,LD50 HEPG2 (Liver),"HEPG2; human, HepG2 liver cells",>400 µM
same,HLM % remaining after 60 min,[3],90.6 ± 0.2%
same,MLM % remaining after 60 min,[4],46.6 ± 0.3%
"COc1ccc2c(c1)C(=O)N1CCC[C@H]1c1c(-c3nnn[nH]3)ncn1-2 [RJ-03-57, (S)-7-methoxy-1-(1H-tetrazol-5-yl)-11,12,13,13a-tetrahydro-9H-benzo[e]imidazo[5,1-c]pyrrolo[1,2-a][1,4]diazepin-9-one]",LD50 HEK293 (Kidney),HEK293,>200 µM
same,LD50 HEPG2 (Liver),HEPG2,>200 µM
same,HLM % remaining after 60 min,[3],94.3 ± 0.1%
same,MLM % remaining after 60 min,[4],98.3 ± 0.2%
same,"airway smooth muscle contractile force, guinea pig tracheal rings",[5],All investigated compounds except RJ-03-57 reduced the constriction of airway smooth muscle
same,airway hyperresponsiveness (sRaw),[1],not able to alleviate airway hyperresponsiveness
same,absorption,[6],moderate absorption
same,clearance,[6],fast clearance
"O=C(O)c1ncn2c1[C@@H]1CCCN1C(=O)c1cc(O)ccc1-2 [RJ-03-90, (S)-7-hydroxy-9-oxo-11,12,13,13a-tetrahydro-9H-benzo[e]imidazo[5,1-c]pyrrolo[1,2-a][1,4]diazepine-1-carboxylic acid]",numbers of inflammatory cells in BALF,[2],did not modulate the numbers of inflammatory cells
